Consider two molecules from patent US11034672B1, “Tyrosine kinase inhibitor compositions, methods of making and methods of use” (Black Diamond Therapeutics, Inc., priority 2018, dated 2021).

Where only a bound is given, the exact number is not on record here.

The target of one assay is WT-EGFR (A431 cell line) (Homo sapiens, UniProt P00533). Nature of the assay: A431 cell proliferation (Cell Titer Glo), WT-EGFR. The settings on record: A431 cells, 72 hours. In kind it is cell-based. As for the experimental part:
To determine the ability of Compound No. 6 to target wild type HER2, wild type EGFR, and relevant mutants of each, a panel of BaF3 cell lines and the A431 cell line were dosed and assessed in cell proliferation assays. The BaF3 parental cell line is normally dependent on IL-3 for proliferation, but when transformed with active tyrosine kinase can grow in the absence of IL-3. However, when transformed kinase activity is inhibited by a targeted small molecule the associated proliferation is reduced in proportion to the extent of inhibition. […] Proliferation was assessed using the Cell Titer Glo cell proliferation kit (Promega # G7573). […] Cell Titer Glo was added to plated cells at 15 ul per well, the plate was shaken for 20 minutes at room temperature, and luminescence was measured using Victor X3 Multimode plate reader (Perkin Elmer), Cell Titer Glo readings were taken following 72 hours (T72) after addition of Compound No. 6. […]
The BaF3 parental cell line is normally dependent on IL-3 for proliferation, but when transformed with active tyrosine kinase can grow in the absence of IL-3. […] Proliferation was assessed using the Cell Titer Glo cell proliferation kit (Promegaf# G7573). […] Cell Titer Glo was added to plated cells at 15 ul per well, the plate was shaken for 20 minutes at room temperature, and luminescence was measured using Victor X3 Multimode plate reader (Perkin Elmer). […]
In general terms: Cellular ATP, detected with luciferase, serves as a proxy for viable cell number.

Assay [1] concerns CUTO-14 tumors (EGFR-Exon 20 insertion ASV). Nature of the assay: Tumor growth in athymic nude mice bearing CUTO-14 tumors. In kind it is in vivo. Here is the method: To determine the ability of Compound No. 6 to inhibit tumor growth and induce tumor regression in vivo, a mouse tumor model containing the EGFR-Exon 20 insertion ASV (CUTO-14) mutation was used. Athymic nude mice from Charles River Labs bearing CUTO-14 tumors were treated with Compound No. 6 at either 50 mg/kg once per day (QD) or 25 mg/kg twice per day (BID) over the indicated time course, and tumor volume was measured. Tumor volume was analyzed to assess the effect of Compound No. 6 on tumor growth and regression.

WT-EGFR (A431 cell line), sequence (P00533 25-1210): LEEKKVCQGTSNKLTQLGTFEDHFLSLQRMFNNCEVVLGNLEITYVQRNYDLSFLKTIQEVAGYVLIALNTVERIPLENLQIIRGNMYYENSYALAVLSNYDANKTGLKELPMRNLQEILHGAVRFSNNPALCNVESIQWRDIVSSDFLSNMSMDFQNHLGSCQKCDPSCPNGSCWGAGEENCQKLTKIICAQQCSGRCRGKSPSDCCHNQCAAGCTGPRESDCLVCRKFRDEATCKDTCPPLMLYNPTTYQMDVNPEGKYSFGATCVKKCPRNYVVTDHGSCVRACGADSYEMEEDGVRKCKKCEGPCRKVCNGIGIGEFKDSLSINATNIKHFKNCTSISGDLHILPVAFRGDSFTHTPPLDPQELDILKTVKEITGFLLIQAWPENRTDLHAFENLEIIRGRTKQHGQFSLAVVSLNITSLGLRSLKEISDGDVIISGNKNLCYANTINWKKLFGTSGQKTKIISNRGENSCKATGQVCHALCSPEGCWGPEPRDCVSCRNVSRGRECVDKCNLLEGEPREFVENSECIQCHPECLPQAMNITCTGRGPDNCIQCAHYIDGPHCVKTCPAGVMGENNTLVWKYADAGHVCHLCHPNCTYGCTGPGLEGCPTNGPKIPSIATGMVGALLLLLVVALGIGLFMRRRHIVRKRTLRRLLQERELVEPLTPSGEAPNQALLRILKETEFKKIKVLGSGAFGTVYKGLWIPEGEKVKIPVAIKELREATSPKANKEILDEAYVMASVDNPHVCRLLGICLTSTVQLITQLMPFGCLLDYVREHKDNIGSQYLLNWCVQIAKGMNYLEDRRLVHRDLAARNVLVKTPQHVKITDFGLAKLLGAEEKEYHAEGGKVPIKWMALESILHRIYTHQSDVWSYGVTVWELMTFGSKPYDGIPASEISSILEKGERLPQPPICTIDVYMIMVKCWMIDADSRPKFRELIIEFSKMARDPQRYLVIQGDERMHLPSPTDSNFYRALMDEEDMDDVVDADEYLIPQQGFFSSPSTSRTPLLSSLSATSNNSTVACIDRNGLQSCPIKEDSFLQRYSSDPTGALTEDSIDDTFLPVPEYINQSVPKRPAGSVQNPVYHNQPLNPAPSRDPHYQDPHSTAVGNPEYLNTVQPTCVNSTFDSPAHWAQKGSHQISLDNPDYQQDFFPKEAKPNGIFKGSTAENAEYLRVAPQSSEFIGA

The molecule `C=CC(=O)Nc1cc2c(Nc3cc(Cl)c(OCc4cccc(F)c4)cc3F)ncnc2cc1OCCN1CCOCC1` [compound 6] registered an IC50 at WT-EGFR (A431 cell line) above 100 nM. Moreover, the Tumor volume entry in assay [1] (25 mg/kg twice per day (BID), FIG. 32) was “decreased”; in assay [1] (50 mg/kg once per day (QD), FIG. 32), “decreased”.
`C=CC(=O)Nc1cc2c(Nc3ccc(OCc4ccccn4)c(Cl)c3)ncnc2cc1OCCN1CCOCC1` [compound 8] gave an IC50 on WT-EGFR (A431 cell line) above 100 nM. The Tumor volume result is “decreased” in assay [1] (30 mg/kg once per day (QD), FIG. 31) and “decreased” in assay [1] (50 mg/kg twice per day (BID), FIG. 31).

For orientation: IC50 means the point on the concentration scale where inhibition reaches its midpoint.
